In assay [1] the target is T1, Cytochrome P450 2C9 (Homo sapiens, UniProt P11712). Briefly: Binding affinity was measured on Cytochrome P450 2C9. The format is ADME.
In assay [2] the target is T1, Cytochrome P450 2C9. Description: Binding affinity measured on human cytochrome P450 2C9 (CYP2C9) enzyme.
In assay [3] the target is T1, Cytochrome P450 2C9. Briefly: Binding affinity for human Cytochrome P450 2C9. It counts as ADME.

We go through 36 compounds from ChEMBL document CHEMBL1133779, “A refined 3-dimensional QSAR of cytochrome P450 2C9: computational predictions of drug interactions” (J Med Chem, 2000).

Molecules are shown by their SMILES.

T1 sequence (P11712 whole entry): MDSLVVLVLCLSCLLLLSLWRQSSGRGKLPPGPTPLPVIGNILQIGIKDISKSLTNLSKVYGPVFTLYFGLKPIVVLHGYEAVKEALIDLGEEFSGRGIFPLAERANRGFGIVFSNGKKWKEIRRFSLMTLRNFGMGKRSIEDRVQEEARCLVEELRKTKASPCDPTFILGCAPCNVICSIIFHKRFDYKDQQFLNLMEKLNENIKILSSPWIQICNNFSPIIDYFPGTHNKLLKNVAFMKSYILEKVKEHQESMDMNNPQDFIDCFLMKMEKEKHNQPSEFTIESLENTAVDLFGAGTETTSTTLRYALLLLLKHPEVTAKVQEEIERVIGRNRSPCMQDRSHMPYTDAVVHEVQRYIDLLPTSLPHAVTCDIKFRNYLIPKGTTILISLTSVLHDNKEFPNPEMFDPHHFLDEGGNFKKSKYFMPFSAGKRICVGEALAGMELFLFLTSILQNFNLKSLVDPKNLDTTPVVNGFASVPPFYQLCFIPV

The term Ki denotes the equilibrium dissociation constant of an inhibitor or competing ligand from its target. A lower Ki goes with tighter binding. Consider `C[C@H](O)C[C@@H](c1ccccc1)c1c(O)oc2ccccc2c1=O`, for which the affinity on Cytochrome P450 2C9 [1] corresponds to a Ki of 3 µM.
Regarding `COc1oc2ccccc2c(=O)c1[C@@H](CC(C)=O)c1ccccc1`, the affinity at Cytochrome P450 2C9 [2] corresponds to a Ki of 21 µM.
Compound `CC[C@@H](c1ccccc1)c1c(OC)oc2ccccc2c1=O` showed a Ki on Cytochrome P450 2C9 [1] of 0.1 µM.
In turn, `CC(C(=O)O)c1ccc(C(=O)c2cccs2)cc1` (stereo unspecified) [SUPROFEN] had an inhibition constant (Ki) at Cytochrome P450 2C9 [2] of 45 µM.
Same read-out and setting: the value for `C#Cc1ccc(S(=O)(=O)Nc2cc(C)on2)cc1` was 3 µM; that for `CC(=O)c1ccc(S(=O)(=O)Nc2ccnn2-c2ccccc2)cc1` was 2.4 µM; that for `O=S(=O)(Nc1ccnn1-c1ccccc1)c1ccc(O)cc1` was 6 µM.
Same read-out and setting: the value for `O=S(=O)(Nc1ccnn1-c1ccccc1)c1ccccc1` was 2 µM.
As for `O=C(O)Cc1ccccc1Nc1cc(Cl)ccc1Cl`, affinity on Cytochrome P450 2C9 [2] was put at a Ki of 2 µM.
On the same count and under the same terms, with `C#Cc1ccc(S(=O)(=O)NC(=O)NCC(C)C)cc1` the figure was 48 µM.
On Cytochrome P450 2C9 [1], `CO[C@@]1(C)C[C@H](c2ccccc2)c2c(c3ccccc3oc2=O)O1` returned a Ki of 1.5 µM.
Compound `C#Cc1ccc(C2(c3ccccc3)NC(=O)NC2=O)cc1` (stereo unspecified) registered a Ki on Cytochrome P450 2C9 [2] of 18 µM.
In turn, `CC[C@@H](c1ccccc1)c1c(OC)c2ccccc2oc1=O` displayed a Ki on Cytochrome P450 2C9 [1] of 6 µM.
Turning to `[N-]=[N+]=Nc1ccc(S(=O)(=O)Nc2ccnn2-c2ccccc2)cc1`, affinity on Cytochrome P450 2C9 [1] was put at a Ki of 0.4 µM.
Turning to `C#Cc1ccc(S(=O)(=O)NC(=O)NCc2ccccc2)cc1`, on Cytochrome P450 2C9 [2], the affinity corresponds to a Ki of 25 µM.
Same read-out and setting: with `C#Cc1ccc(S(=O)(=O)NC(=O)NCCCC)cc1` the figure was 18 µM.
`[N-]=[N+]=Nc1ccc2oc(O)c(Cc3c(O)oc4ccc(N=[N+]=[N-])cc4c3=O)c(=O)c2c1`: affinity on Cytochrome P450 2C9 [1] was put at a Ki of 3 µM.
Same read-out and setting: the value for `C#Cc1ccc2oc(O)c(C(C(C)=O)c3ccccc3)c(=O)c2c1` (stereo unspecified) was 1.5 µM; that for `CC1(O)C[C@@H](c2ccccc2)c2c(c3ccccc3oc2=O)O1` (stereo partly specified) was 25 µM.
In turn, `COc1c([C@H](CC(C)=O)c2ccccc2)c(=O)oc2ccccc12` (stereo in doubt; 14) gave a Ki at Cytochrome P450 2C9 [1] of 10 µM.
Still for that read-out and setting: with `CC[C@H](c1ccccc1)c1c(O)oc2ccccc2c1=O` (stereo in doubt; 9) the figure was 18 µM.
On the same count and under the same terms, the value for `C[C@@H](O)C[C@@H](c1ccccc1)c1c(O)oc2ccccc2c1=O` was 0.1 µM; that for `COc1c([C@H](CC(C)=O)c2ccccc2)c(=O)oc2ccccc12` (stereo in doubt; 15) was 2.4 µM; that for `C[C@@H](O)C[C@H](c1ccccc1)c1c(O)oc2ccccc2c1=O` was 3 µM.
Consider `C#Cc1ccc(S(=O)(=O)NC(=O)Nc2ccccc2)cc1`, for which, on Cytochrome P450 2C9 [2], the Ki was 7 µM.
Consider `CC1(O)C[C@H](c2ccccc2)c2c(c3ccccc3oc2=O)O1` (stereo partly specified), for which, at Cytochrome P450 2C9 [1], the Ki is 7 µM.
For the compound `Cc1ccc(C)c(OCC(C)(C)C(=O)O)c1`, on Cytochrome P450 2C9 [2], the Ki is 15 µM.
`COc1oc2ccccc2c(=O)c1[C@H](CC(C)=O)c1ccccc1` gave a Ki at Cytochrome P450 2C9 [3] of 29 µM.
On Cytochrome P450 2C9 [1], `CC[C@H](c1ccccc1)c1c(O)oc2ccccc2c1=O` (stereo in doubt; 8) returned a Ki of 0.5 µM.
On Cytochrome P450 2C9 [1], `CO[C@@]1(C)C[C@@H](c2ccccc2)c2c(c3ccccc3oc2=O)O1` (stereo in doubt; 4) showed a Ki of 7 µM.
Same read-out and setting: with `C#Cc1ccc2c(=O)c(C(C(C)=O)c3ccccc3)c(O)oc2c1` (stereo unspecified) the figure was 1.1 µM; with `CC[C@H](c1ccccc1)c1c(OC)oc2ccccc2c1=O`, 14 µM.
In turn, `CO[C@]1(C)C[C@@H](c2ccccc2)c2c(c3ccccc3oc2=O)O1` had an inhibition constant (Ki) at Cytochrome P450 2C9 [1] of 20 µM.
Same read-out and setting: with `CO[C@@]1(C)C[C@@H](c2ccccc2)c2c(c3ccccc3oc2=O)O1` (stereo in doubt; 6) the figure was 1.1 µM; with `CC[C@H](c1ccccc1)c1c(OC)c2ccccc2oc1=O`, 13 µM; with `C[C@H](O)C[C@H](c1ccccc1)c1c(O)oc2ccccc2c1=O`, 0.4 µM.
